# Assay results from patent US5358936A, “Anionic furanose derivatives, methods of making and using the same” (Gordon; Paul, priority 1991, dated 1994).
# Entries after “also recorded” stand apart in the source; their conditions may differ. Structures can show the parent of a compound that is named as a salt.
# What was measured:
# rat stomachs [1] = experiment: Gastric pathology following inflammatory stress and indomethacin, fed rats (Example 20); format: in vivo, male Sprague Dawley rats; parameters: scale not given here; settings: stress + indomethacin 30 mg/kg oral; Compound III 50 mg/kg subcutaneously where given; 24 hours
# Experimental: (§1) Stress was induced by the following procedure. On day one, under ether anesthesia, 18 male Sprague Dawley rats were injected with a suspension of Zymosan A (1 mg/ml in normal saline; Sigma Chemical Co.) in each hind paw. Swelling developed and persisted. This treatment generated activated blood complement locally (including the C5a moiety), which then spread by the bloodstream throughout the animal.
# (§2) Twenty-four hours later all rat paws were reinjected, this time with 0.1 ml of proinflammatory zymosan-activated rat serum containing additional amounts of inflammatory complement fragment C5a (as in Example 23, hereinafter). Five hours later 30 mg/kg indomethacin in an aqueous suspension was given to nine such rats by oral garage. These rats also received a subcutaneous injection of 0.1 ml normal saline. Nine other such rats were given indomethacin as above, and Compound III (50 mg/kg in normal saline subcutaneously). Four additional rats, not stressed (normal) were given water by garage as a placebo and saline subcutaneously. All rats were fed ad libitum on standard diet.
# Twenty-four hours later all animals were sacrificed by ether euthanasia. Their stomachs were washed with saline and evaluated for ulcer-related pathology using an illuminated magnifying glass. This assay is similar to that reported by Kinney et al., J. Med. Chem., 33:327 (1990).
# [2] = test system: bacterial lipopolysaccharide toxicity; experiment: Early shock symptoms (diarrhea, malaise) after bacterial endotoxin in older rabbits (Example 28 B); format: in vivo, rabbit; settings: 10 mg/kg IV; by 48 hours; all eight controls affected; P<0.01
# Experimental: B. Employing the same batch of endotoxin, the same induction methodology was applied to an older, seven month old group of rabbits. […] In this study the treatment group received 10 mg/kg of Compound III, given IV, as above.
# rat stomachs [3] = experiment: Gastric pathology following inflammatory stress and indomethacin, food-deprived rats (Example 21); format: in vivo
# Experimental: as §1, §2
# In contrast to the study of Example 20, above, in this study animals were food deprived for 24 hours before and also during the 24 hours following drug treatments. All animals were subjected to the inflammatory stress as described in Example 20. Eight such rats received 30 mg/kg indomethacin, and eight rats received indomethacin and Compound III (subcut., 50 mg/kg). Four rats, not stressed, were given placebo by garage.
# All animals were sacrificed by ether euthanasia 24 hours later, and their stomachs evaluated for ulcer-related pathology.
# In the stressed animals given indomethacin alone, pathology was much more severe than in Example 20. For scoring, therefore, the frequency of ulcers per rat stomach was quantified, and whether they were or were not bleeding.
# [4] = test system: gastric submucosal thrombi; experiment: Inhibition of gastric submucosal thrombi (Example 30); format: in vivo, rat; settings: 10 mg/kg IV
# Experimental: Thrombosis was induced in rat stomach submucosal blood vessels by the following two-step treatment. First, 1.5 ml of 100 percent ethanol was administered by oral gavage. This produces non-specific injury to tissues and blood vessels of the gastric mucosa. Second, 1.0 mg of adenosine diphosphate (ADP) in 1.0 ml of H2 O, was administered by oral garage 15 minutes after the administration of ethanol. Administration of ADP biases the organ response towards thrombosis by inducing platelet aggregation.
# The pathology generated is typically a disseminated pattern of multiple small thrombi, observed on examination of the gastric mucosa, 1-3 hours after ethanol administration. These thrombi are dark red, dilated, thrombosed submucosal blood vessel segments, each being approximately 1 mm thick and 2 to 6 mm long.
# In these studies, animals were treated with drug or centrol at one hour prior to ethanol administration. Thrombosis was induced as discussed before, and animals were sacrificed at 1.5 hours after ethanol administration. Focal thrombi were then counted. In this study, n=9-10.
# mouse paw = experiment: Mouse paw edema provoked by clostridial collagenase (Example 32); format: in vivo; settings: for maximal drug inhibition of edema: lower enzyme level (0.05 μg/ml), 100 mg/kg divided IV and IP
# Experimental: Further, mouse paw edema was provoked by two levels of clostridial collagenase enzyme, in the supramaximal range (0.05 μg/ml and 0.15 μg/ml), and treated with one level of drug (Compound III; 100 mg/kg divided equally and administered IV and IP at zero time). The maximal drug inhibition observed was 81 percent at one hour and 87 percent at two hours, for the lower level of enzyme.
# platelet aggregation = experiment: Mouse tail bleeding time (Example 31 B); format: in vivo
# Experimental: A study of mouse tail bleeding time, which is an in vivo model of platelet aggregation and thrombosis was also conducted. In this widely employed model, bleeding was induced by a standardized transection of the tail tip and subsequent bleeding time was determined after vertical immersion of the tails in isotonic saline at 37° C. for thirty seconds.
# Two compounds of the invention, Compound III and Compound VIII, were assessed as compared with aspirin, in another study of mouse tail bleeding time. In this study, the mice were housed in a standard animal room rather than in a noisy small animal isolator. Also, all three drugs were administered by an intraperitoneal route, rather than a subcutaneous route for Compound III and an intraperitoneal route for aspirin.
# [5] = Acute toxicity in the mouse (Example 29 A); settings: in vivo
# Excerpt: Acute intraperitoneal and oral toxicity of Compound III was studied in the mouse. Ten animals per dose were employed.
# lung gross pathology = experiment: Generalized Schwartzmann Reaction (Example 28 A); format: in vivo, rabbit; settings: P < 0.01
# Experimental: The Generalized Schwartzmann Reaction (GSR) is a pathology in which two intravenous injections of non-lethal amounts of bacterial endotoxin, when separated by 8 to 36 hours, promote thrombotic and tissue-destructive processes in the lung, producing disseminated pulmonary thrombosis and necrosis in otherwise untreated rabbits.
# A. In this study, eight six-week old salmonella-free male rabbits each weighing about 1.5 kg were injected IV with saline vehicle and eight similar rabbits were injected IV with 50 mg/kg of Compound III in the same vehicle. One hour later, all of the animals were injected IV with 100 μg of E. coli lipopolysaccharide (LPS; Sigma Chemical Co.) on day one and with the same amount of LPS on day two, twenty hours later. Animals were evaluated for clinical signs at 24 and 48 hours, and were sacrificed for organ evaluation 48 hours after the second endotoxin injection.
# In assessing gross pathology, separate scores were developed in four categories and these were then summed and added, in one instance, to a score for clinical signs.
# Gross Pathology Categories
# (1) Surface redness, diffuse or mottled (reflecting hyperemia, hemostasis).+2 to +4.
# (2) Discrete focal surface lesions (reflecting thrombosis without disruption of gross pulmonary architecture).
# Excerpt for physchem: Note that the term "apparent pK" in this context is meant to encompass the maximization of buffering that come both from solid-state dissolution and its titration as solute.
smiles,measurement,setting,value
"CC1(C)O[C@H]2O[C@H]([C@@H](COS(=O)(=O)O)OS(=O)(=O)O)[C@H](OS(=O)(=O)O)[C@H]2O1 [Compound III, 1,2-O-(2-Propylidene)-3,5,6-tri-O-sulfo-α-D-glucofuranose, tripotassium salt]",Mean Pathology score,rat stomachs [1],0.00
same,"Pathology score, individual rat",rat stomachs [1],0.0
same,pKa,physchem,< 0.5
same,"rabbits exhibiting symptoms of early shock (diarrhea, malaise)",[2],only one of eight
same,bleeding ulcers in group,rat stomachs [3]; eight rats,None were bleeding
same,"Bleeding Ulcer Frequency, Mn ± SE","rat stomachs [3]; indomethacin 30 mg/kg, Compound III 50 mg/kg subcut. where given, 24 hours, P<0.001 vs indomethacin alone",0.00 Per Rat
same,"Total Ulcer Frequency, n ± SE","rat stomachs [3]; indomethacin 30 mg/kg, Compound III 50 mg/kg subcut. where given, 24 hours, P<0.01 vs indomethacin alone",0.63 ± 0.42 Per Rat
same,ulcers per affected rat,"rat stomachs [3]; indomethacin: all eight rats, indomethacin + Compound III: only two rats",two and three
same,Drug Effect on thrombi,[4],-62.3%
same,"Mean Thrombi per Stomach, ±SE","[4]; ethanol + ADP, control 10.60 ± 1.42",4.00 ± 1.12 per Stomach
same,maximal drug inhibition of edema,mouse paw; one hour,81%
same,"drug inhibition at higher enzyme level, in words","mouse paw; two hours, 0.15 μg/ml enzyme, 100 mg/kg",not significant
same,maximal drug inhibition of edema,mouse paw; two hours,87%
same,"effect on mouse tail bleeding time, in words","platelet aggregation; 50 mg/kg and 150 mg/kg subcutaneously, P<0.05",more than doubled bleeding time
same,% Increase in bleeding time,platelet aggregation; 100 mg/kg intraperitoneal,276%
same,Mouse Tail Bleeding Time,"platelet aggregation; 100 mg/kg intraperitoneal, control 37.0 ± 5.25",139.0 ± 22.51 s
same,potency relative to aspirin in prolonging mouse tail bleeding time / suppressing platelet aggregation,"platelet aggregation; first study: aspirin 75 mg/kg IP, Compound III s.c. or oral, second study: all IP 100 mg/kg, tripotassium salt",equipotent with aspirin (75 mg/kg IP); also recorded: about equipotent with aspirin; also recorded: more effective than aspirin; also recorded: more potent than aspirin in the suppression of platelet aggregation
same,LD50,"[5]; ip, read-out: LD50, intraperitoneal",2800 mg/kg
same,NOAEL,[5]; iv,3000 mg/kg
same,oral dose producing death,[5]; po,> 4500 mg/kg
same,Mean Pathology score,"lung gross pathology; 50 mg/kg IV one hour before LPS, untreated 8.00 ± 1.02",2.25 ± 1.10
same,Drug Effect on mean pathology score,lung gross pathology; 50 mg/kg IV,-72%
